From US20080119462A1, “METHOD FOR TREATING VASCULAR HYPERPERMEABLE DISEASE” (Sucampo AG, priority 2003, published 2008)
Structures can show the parent of a compound that is named as a salt.

Tests used:
diabetic rats = assay: Ocular permeability in STZ diabetic rats (leakage of fluorescein into the vitreous); assay type: in vivo, rat; details: daily from 2 weeks after STZ, mean ± S.E.M., 10 rats
Protocol: Diabetes in rats was induced with an intraperitoneal (i.p.) injection of 65 mg/ml/kg of streptozotocin (STZ) in 2 mmol/l citrate buffer (pH 4.5) after a 20-h fast. At the same time control rats were injected with an equal volume of 2 mmol/l citrate buffer. Plasma glucose level was checked by a calorimetric method. At day 3 of STZ treatment, the rats were diagnosed with diabetes showing a plasma glucose level of 350 mg/dl.
The treatment of Compound A was given daily from 2 weeks after STZ treatment for 2 weeks. At 24 hrs after final treatment of Compound A, the vascular permeability in oculus was investigated based on the leakage of dye into the vitreous 30 min after intravenous injection of fluorescein solution (40 mg/ml/kg). Permeability was expressed as vitreous/plasma ratio of fluorescein concentration measured by a fluorophotometer. At the same time, the plasma SSAO activity was checked by the radiochemical-enzyme assay using ^14C-benzylamine (2×10^−5 mol/l final concentration) as substrate.
In the same manner as in Example 2, the effect of various VAP-1 inhibitors on ocular permeability was determined in diabetic rats.

SMILES | melting point [°C] | Vitreous/Plasma Ratio of Fluorescein Concentration (diabetic rats; 0.1 mg/kg, s.c.) | Vitreous/Plasma Ratio of Fluorescein Concentration (diabetic rats; 0.003%, ocular instillation, u.i.d.)
CC(=O)Nc1nc(CCc2ccc(NC3=NCCN3)cc2)c(Cc2ccc(S(C)(=O)=O)cc2)s1 [Production Example 55, N-{4-{2-[4-(4,5-dihydro-1H-imidazol-2-ylamino)phenyl]ethyl}-5-[4-(methylsulfonyl)benzyl]-1,3-thiazol-2-yl}acetamide] | 139 to 140 |  | 
CC(=O)Nc1nc(CCc2ccc(CON)cc2)cs1 [Compound B, N-[4-(2-{4-[(aminooxy)methyl]phenyl}ethyl)-1,3-thiazol-2-yl]acetamide] | 130 to 130.5 | 7.54 ± 0.80 ×10^−3 | 9.86 ± 1.65 ×10^−3
CC(=O)Nc1nc(CCc2ccc(NC(=N)N)cc2)c(Cc2ccc(S(C)(=O)=O)cc2)s1 [Production Example 48, N-{4-[2-(4-{[amino(imino)methyl]amino}phenyl)ethyl]-5-[4-(methylsulfonyl)benzyl]-1,3-thiazol-2-yl}acetamide] | 228 to 229.5 |  | 
CC(=O)Nc1nc(CCc2ccc(NC3=NCCS3)cc2)cs1 [Production Example 2, N-(4-(2-(4-(4,5-dihydro-1,3-thiazol-2-ylamino)phenyl)ethyl)-1,3-thiazol-2-yl)acetamide] | 218 to 219.5 |  | 
CC(=O)Nc1nc(CCc2ccc(C(=N)N)cc2)cs1.Cl | 229.5 to 231 |  | 

Further lines, with some results ahead:

melting point [°C] | SMILES | Vitreous/Plasma Ratio of Fluorescein Concentration (diabetic rats; 0.1 mg/kg, s.c.) | Vitreous/Plasma Ratio of Fluorescein Concentration (diabetic rats; 0.003%, ocular instillation, u.i.d.)
136.5 to 137 | C=NOCc1ccc(CCc2csc(NC(C)=O)n2)cc1 [Production Example 17, N-{4-[2-(4-{[(methyleneamino)oxy]methyl}phenyl)ethyl]-1,3-thiazol-2-yl}acetamide] |  | 
81.5 to 83 | CC(=N)Nc1ccc(CCc2nc(NC(C)=O)sc2Cc2ccc(S(C)(=O)=O)cc2)cc1 [Production Example 56, N-{4-{2-[4-(ethanimidoylamino)phenyl]ethyl}-5-[4-(methylsulfonyl)benzyl]-1,3-thiazol-2-yl}acetamide] |  | 
190.5 to 192 | CC(=O)Nc1nc(CCc2ccc(CC(=N)N)cc2)cs1 (as salt: hydrochloride) [Production Example 59, N-(4-{2-[4-(2-amino-2-iminoethyl)phenyl]ethyl}-1,3-thiazol-2-yl)acetamide] |  | 
108 to 109.5 | CC(=O)Nc1nc(CCc2ccc(C(=O)NC(=N)N)cc2)c(Cc2ccc(S(C)(=O)=O)cc2)s1 [Production Example 106, 4-(2-{2-(acetylamino)-5-[4-(methylsulfonyl)benzyl]-1,3-thiazol-4-yl}ethyl)-N-[amino(imino)methyl]benzamide] |  | 
